System: C57BL/6 mouse melanocyte cells (MeI-Ab cells)
Experiment: Melanin production inhibitory effects using MeI-Ab cells (Dooley's method)
Type: cell-based
Settings: substances added during 3 days from day 2 of culture, absorbance at 400 nm, hydroquinone 100 ppm
Description: The melanin production inhibitory effects of the ODIs obtained in Examples 1 and 2 were measured using MeI-Ab cells.
First, C57BL/6 mouse melanocyte cells (MeI-Ab cells) (Dooley, T. P. et al, Skin pharmacol, 7, pp 188-200) were cultured in a DMEM (Dulbeccos modified Eagles media) medium containing 10% fetal bovine serum, 100 nM 2-O-tetradecanoylphorbol-13-acetate and 1 nM cholera toxin in conditions of 37° C. and 5% CO2. The cultured MeI-Ab cells were detached by 0.25% trypsin-EDTA and cultured in a 24-well plate at a concentration of 10^5 cells/well. During the culture period, 100 ppm hydroquinone and each of the ODIs obtained in Examples 1 and 2 were added to the cells continuously during 3 days from 2 days after the start of the culture. Herein, the hydroquinone was used as a positive control group. The culture broth was collected and washed, and the cells were lysed with 1N sodium hydroxide and measured for absorbance at 400 nm.
Melanin production inhibition (%)=100−(absorbance of each test substance/absorbance of control group×100) [Math Figure 1]

Row | SMILES | Melanin production inhibition (%) | inhibition at 100 ppm (Mus musculus, Melanocyte) [%]
1 | O=c1c(-c2ccc(O)c(O)c2)coc2cc(O)ccc12 [7,3′,4′-trihydroxyisoflavone] | 38.7 | –
2 | O=c1c(-c2ccc(O)c(O)c2)coc2cc(O)cc(O)c12 [7,5,3′,4′-tetrahydroxyisoflavone] | 40.8 | –
3 | O=c1c(-c2ccc(O)cc2)coc2cc(O)c(O)cc12 [7,6,4′-trihydroxyisoflavone] | 38.8 | –
4 | O=c1c(-c2ccc(O)cc2)coc2c(O)c(O)ccc12 [7,8,4′-trihydroxyisoflavone] | 39.8 | –
5 | Oc1ccc(O)cc1 [Hydroquinone, hydroquinone, reference compound] | – | 41.1

From patent US20110033904A1, “METHOD FOR PREPARING ORTHODIHYDROXYISOFLAVONES USING A BIOTRANSFORMATION SYSTEM” (priority 2008, published 2011)
